Measured values: patent US10174401B2, “Methods for binding and precipitating gold using microbial-derived metallophores and their uses” (McMaster University, priority 2013, dated 2019)
*1 amine or outer side, *2 acyl side, *3 side chain or, on linkers, in order; H or OH if unused. Where a SMILES comes first, the peptide text is derived from it. [ ]: non-standard residue; d: D form. The star is where a group is joined. ξ: configuration not given here. NH(1-OH-2-oxopiperidin-3-yl) = O=C1C(N*)CCCN1O; ξOrn(N(OH)Ac) = CC(=O)N(O)CCCC(N)C(=O)O; ξOrn(N(OH)CHO) = NC(CCCN(O)C=O)C(=O)O; ξAsp(βξ-Me) = CC(C(=O)O)C(N)C(=O)O; X2 = C/C=C(/N[*:1])C(=O)[*:2]; X1 = CC(N)C(O)C(C)C(=O)*

Tests used:
[1] = Gold-siderophore reactions (gold nanoparticle formation, gold-iron competition, LC-MS of supernatant); conditions: for gold nanoparticle formation (visual inspection): 10 mM AuCl3 reacted with equimolar chelator; for concentration of metallophore after AuCl3 exposure: LC-MS, 2 hr exposure, vs unreacted control; for reaction with gold after pre-exposure to / in presence of iron: equimolar FeCl3
Experimental: Ten microliters of the AuCl3 stock solution was aliquoted into separate 200 μL microcentrifuge tubes, followed by the addition of 10 μL of each respective siderophore or metal chelator, where water was used as a control. The reaction was monitored over time and images were taken. After 2 h, a sample of the mixture was diluted 10× and analyzed by transmission electron microscopy (TEM) (see below). The remaining sample was centrifuged at 13,000 rpm for ten minutes. A 10 μL sample of the supernatant was diluted in 90 μL of water and subsequently analyzed by LC-MS. A control of unreacted siderophore and metal chelator of the same concentration was also analyzed for comparison. […] Reactions were monitored similarly. UV-vis spectrums were obtained using a Synergy 4 microplate reader (Biotek).

[2] = TEM imaging of siderophore-gold reactions
Experimental: Transmission electron microscopy imaging was performed with a JEOL JEM 1299 EX TEMSCAN transmission electron microscope (JEOL, Peabody, Mass., USA) operated at an accelerating voltage of 80 kV. Sample preparation: a 2 μL drop of a diluted (10×) siderophore-gold reaction was deposited over a formvar-coated TEM grid, and was allowed to dry under ambient conditions before being imaged. Gold nanoparticle size distribution was determined using the software, ImageJ.

D. acidovorans ΔdelG [3] = assay: Delftibactin-mediated protection against gold toxicity (CFU after acute exposure); assay type: cell-based, Delftia acidovorans
Experimental: Cultures of D. acidovorans wild type and D. acidovorans ΔdelG were grown in deferrated ACM for 2 days at 30° C. In 96-well plates, 200 μL of wild type or mutant grown culture were incubated in the presence and absence of 100 μM AuCl3. At the same time, the mutant culture was also complemented with […] delftibactin (biological levels) in the presence of 100 μM AuCl3. After 30 minutes, cultures were serially diluted in water and plated on LB agar to determine the colony forming units of D. acidovorans after gold exposure. Results are shown as mean s.d.; n=4; Two-tailed student's t-test.

[4] = Experimental: The gold-delftibactin A interaction was determined through two separate experiments. First, AuCl3 was held constant at 2.5 mM and the interaction with delftibactin A was monitored by measuring the absorption of AuCl3 remaining in solution after precipitation by delftibactin A through comparison with a standard curve. Briefly, 2.5 mM AuCl3 was incubated with 5, 2.5, 1.25, 0.6125, 0.3063, and 0.1531 mM delftibactin A for 1 h. Solutions were filtered with a 0.22 μM Acrodisc (Pall, USA) to remove insoluble delftibactin A-gold precipitate. 100 μl of the filtered reaction was placed in a 96-well plate and the absorbance was read at 300 nm using a SpectraMax 384 Plus (Molecular Devices, USA). Absorption was compared to an AuCl3 standard curve to determine the concentration of AuCl3 remaining in solution. To monitor the amount of delftibactin A remaining in solution after reaction with gold a similar experiment was conducted. Delftibactin A (2.5 mM) was incubated with 5, 2.5, 1.25, 0.6125, 0.3063, and 0.1531 mM AuCl3 for 1 h. Solutions were filtered similar to above. Reaction mixtures were analyzed using a Waters Alliance 2695 RP-HPLC separations module, equipped with a Waters 2998 photodiode array and a Luna 5u C18 column (250×4.60 mm, Phenomenex). The mobile phase was linear from 2% acetonitrile, 98% water+5 mM (NH4)2CO3 at 2 min to 14% acetonitrile at 18 min at a flow rate of 1 mL/min. […]
D. acidovorans ΔdelG [5] = assay: Gold detoxification in chronic exposure by delftibactin A (growth curves); assay type: cell-based, Delftia acidovorans
Experimental: (§1) Twenty microliter reactions were set up as follows: i) water only, ii) 5 mM delftibactin A, iii) 5 mM AuCl3 iv) 5 mM FeCl3 v) 5 mM AuCl3+5 mM FeCl3 vi) 5 mM delftibactin B+5 mM AuCl3 vii) delftibactin B+5 mM AuCl3+5 mM FeCl3 viii) delftibactin B+5 mM FeCl3. Reactions were initiated by the addition of delftibactin and images were taken at time points indicated. After 2 h, reactions were serially diluted to 30 μM final concentration in ACM containing D. acidovorans ΔdelG diluted 1:1000 from an overnight culture. Optical density was monitored using a TECAN Sunrise™ microplate reader at 600 nm for 36 h. Results are a mean of three growth curves for each condition from a single representative experiment. As a second test of delftibactin protective capacity, D. acidovorans ΔdelG cells from an overnight culture were inoculated 1:1000 into 100 μL ACM in a 96-well plate containing 0 or 10 μM AuCl3, and then provided 0 or 100 μM delftibactin. Cultures were grown for 84 h at 250 rpm at 30° C. in a TECAN Sunrise™ microplate reader, measuring at 600 nm to assess growth. Results are a mean of three growth curves for each condition from a single representative experiment.

[6] = Citrate-gold and delftibactin A-gold comparison; conditions: room temperature, neutral pH
Experimental: Stock 10 mM solutions of sodium citrate and purified delftibactin A were mixed with and equimolar solution of AuCl3 and allowed to react at room temperature in 1.5 mL Eppendorf tubes. Photographs were taken from the initial addition of gold to 1 h exposure. Similarly, TEM experiments were performed by mixing 10 mM stock solutions of AuCl3 and either delftibactin A or sodium citrate 1:1 on a formvar-carbon coated 100-square mesh copper grid, imaging after 10 min AuCl3 exposure.

[7] = Time course of AuCl3 precipitation by delftibactins in absence and presence of FeCl3
Experimental: as §1

[8] = Transmission electron microscopy of delftibactin A:Au(III) complexes; conditions: delftibactin A:AuCl3 2:1, 10 min
From the text: Delftibactin A was reacted with AuCl3 with a molar ratio equal to 2:1 for ten minutes. Each separate reaction of delftibactin A with AuCl3 was examined using a Phillips CM-10 transmission electron microscopy operating at 80 kV. The whole-mount sample was absorbed and dried on a formvar-carbon coated 100-square mesh copper grid and rinsed with filter sterilized, de-ionized water to remove any salt precipitates.

[9] = Test strip: metallophore on C18-silica TLC plate developed with gold chloride; conditions: immobilized on C18-silica TLC slide, developed with gold chloride solution
Experimental: Pictures were taken after 10 min.
A solution containing gold chloride was used to develop the strip. Pictures were taken at the times indicated.

D. acidovorans ΔdelG [10] = assay: Gold protective comparison of delftibactin A and B (growth curves); assay type: cell-based, Delftia acidovorans; conditions: 125 μM AuCl3 + 125 μM delftibactin
Experimental: Twenty microliter reactions were set up as follows: water only, 5 mM AuCl3, 5 mM AuCl3+delftibactin A, and 5 mM AuCl3+delftibactin B. Reactions were initiated with the addition of delftibactin A or B. After 2 h, reactions were serially diluted to 125 μM in ACM containing D. acidovorans ΔdelG diluted 1:1000 from an overnight culture. Optical density was monitored using a TECAN Sunrise™ microplate reader at 600 nm for 36 h. Results are a mean of three growth curves for each condition from a single representative experiment.

D. acidovorans = assay: Growth of D. acidovorans in presence of gold precipitate or AuCl3 (MIC); assay type: cell-based, Delftia acidovorans
Experimental: The assay was set up as follows: 50 μL of ddH2O containing 3.2, 1.6, 1.4, 1.2, 1.0, 0.8, 0.6, 0.4, and 0.2 mM delftibactin A was added in quadruplicate to wells within a 96-well plate. A 1.6 mM stock solution of AuCl3 was made and 50 μL was added to each well containing delftibactin A. No-delftibactin A and no-AuCl3 controls containing only water were also added to the 96-well plate in quadruplicate. This was incubated for 30 min at room temperature, during which time 10 mL of an overnight culture of D. acidovorans, grown in ACM was centrifuged and resuspended in 5 mL sterilized ddH2O. After 30 min incubation of AuCl3 with delftibactin, 100 μL of concentrated culture was added to each well. Final concentration of AuCl3 was 400 μM and the final concentrations of delftibactin A were 800, 400, 350, 300, 250, 200, 150, 100, and 50 μM. After 30 minutes of incubation at room temperature, mixtures were serial diluted and plated onto Nutrient Agar plates and incubated at 30° C. Colonies were counted after 24 h of growth. Results are shown as mean±s.d.; n=4. To assess whether D. acidovorans could grow in the presence of the gold precipitate, several milligrams of delftibactin A and AuCl3 were reacted 1:1 overnight and centrifuged, and washed once with water to concentrate the precipitate. The precipitate was resuspended in ddH2O at a final concentration of 100 mM, calculated using a molecular weight of 1227 g/mol, corresponding to a gold-delftibactin A species. D. acidovorans was grown overnight in a 96-well plate in 100 μL of ACM containing 20 μM to 10 mM gold precipitate or AuCl3. […] The MIC of AuCl3 was determined to be roughly 10 μM.

[11] = Exposure of acidobactin A to gold; conditions: when exposed to gold

Compound: c1ccc(-c2ccccn2)nc1 [bipyridyl]
- gold nanoparticle formation (visual inspection) [1]: fail to develop a similar effect even after prolonged exposure to gold ions

Compound: CC(C)(C1=N[C@@](C)(C(=O)O)CS1)[C@H](O)[C@@H]1CSC([C@H]2CSC(c3ccccc3O)=N2)N1 (stereo partly drawn) [yersiniabactin, reference compound]
- gold nanoparticle formation (visual inspection) [1]: does not generate substantial quantities of gold nanoparticles
- nanoparticles seen by TEM ([2]; after 2 h reaction with AuCl3): did not create any distinct nanoparticles

Compound: C/C=C(/NC(=O)CNC(=O)C(C)NC(=O)C(NC(=O)C(C)C(O)C(C)N)C(C)C(=O)O)C(=O)NC(CCCN(O)C=O)C(=O)NC(C)C(=O)NC(CCCNC(=N)N)C(=O)NC1CCCN(O)C1=O (stereo not drawn) [delftibactin A] (X1-[ξAsp(βξ-Me)]AG[X2][ξOrn(N(OH)CHO)]AR-{NH(1-OH-2-oxopiperidin-3-yl)}; configuration not given here)
- rescue of ΔdelG strain from gold toxicity (D. acidovorans ΔdelG [3]; exogenous purified delftibactin 30 sM, 100 μM AuCl3, 30 min): rescued
- solubility on complexing to gold [4]: abrupt and total loss of solubility
- co-precipitation with gold ([4]; 2.5 mM AuCl3, end-point assays): co-precipitate with gold from solution
- toxicity (D. acidovorans ΔdelG [5]): nontoxic
- protection from chronic gold toxicity (D. acidovorans ΔdelG [5]; exogenous addition to ΔdelG cultures, 100 μM delftibactin A + 10 μM AuCl3, 84 h): sufficient to overcome chronic gold toxicity
- timescale of creating gold structures from Au3+ [6]: seconds
- gold nanoparticle formation (visual inspection) [1]: rapidly undergo a characteristic blackening
- concentration of metallophore after AuCl3 exposure [1]: decreased
- reaction with gold after pre-exposure to / in presence of iron [1]: gold reducing power is reduced
- gold precipitation in presence of iron ([7]; equimolar 5 mM AuCl3 + 5 mM FeCl3): gold precipitation would proceed in the presence of high concentrations of iron
- octahedral gold particle formation ([2]; TEM): also produces octahedral gold particles
- nature of gold precipitate by TEM [8]: abundance of colloidal gold nanoparticles and octahedral gold platelets
- darkening of test strip [9]: darkening can be seen
- detoxification / protection against AuCl3 toxicity (D. acidovorans ΔdelG [10]): more protective against AuCl3 toxicity than delftibactin B

Compound: CC(=O)N(O)CCCC[C@H](NC(=O)CC(O)(CC(=O)N[C@@H](CCCCN(O)C(C)=O)C(=O)O)C(=O)O)C(=O)O [aerobactin]
- gold nanoparticle formation (visual inspection) [1]: fail to produce defined gold nanoparticles

Compound: O=C(N[C@H]1COC(=O)[C@@H](NC(=O)c2cccc(O)c2O)COC(=O)[C@@H](NC(=O)c2cccc(O)c2O)COC1=O)c1cccc(O)c1O [enterobactin]
- gold nanoparticle formation (visual inspection) [1]: considerable gold nanoparticle formation
- concentration of metallophore after AuCl3 exposure [1]: remained unchanged
- reaction with gold after pre-exposure to / in presence of iron [1]: reacts with gold to a similar extent as when iron is not present

Compound: [Cl][Au]([Cl])[Cl] [AuCl3]
- increase in sensitivity to gold toxicity in the ΔdelG strain (D. acidovorans ΔdelG [3]; ΔdelG vs wild-type, 100 μM AuCl3, 30 min exposure, CFUs): 102.8 fold
- concentration at which toxic (D. acidovorans; D. acidovorans): 10 µM
- MIC of AuCl3 (D. acidovorans; D. acidovorans grown overnight in ACM, 96-well plate): roughly 10 μM
- growth of D. acidovorans (D. acidovorans; overnight in ACM containing 20 μM to 10 mM gold precipitate or AuCl3): No growth

Compound: CC1CC(=O)NC(CCCN(O)C=O)C(O)CC(=O)NC(C(C)O)C(=O)NC(CCCNO)C(=O)NC(CO)C(=O)NC(C(O)C(=O)O)C(=O)O1 (stereo not drawn) [acidobactin A]
- gold complexing [11]: shown the gold complexing phenomenon

Compound: O=C(O)CN(CCN(CC(=O)O)CC(=O)O)CC(=O)O [EDTA, ethylenediaminetetraacetic acid]
- gold nanoparticle formation (visual inspection) [1]: fail to develop a similar effect even after prolonged exposure to gold ions

Compound: C/C=C(/NC(=O)CNC(=O)C(C)NC(=O)C(NC(=O)C(C)C(O)C(C)N)C(C)C(=O)O)C(=O)NC(CCCN(O)C(C)=O)C(=O)NC(C)C(=O)NC(CCCNC(=N)N)C(=O)NC1CCCN(O)C1=O (stereo not drawn) [delftibactin B] (X1-[ξAsp(βξ-Me)]AG[X2][ξOrn(N(OH)Ac)]AR-{NH(1-OH-2-oxopiperidin-3-yl)}; configuration not given here)
- gold nanoparticle formation (visual inspection) [1]: rapidly undergo a characteristic blackening
- gold reduction efficiency ([7]; 5 mM AuCl3, compared with delftibactin A): less efficient in gold reduction
- detoxification / protection against AuCl3 toxicity (D. acidovorans ΔdelG [10]): decreased detoxification
